# Measured values reported in PubChem BioAssay AID1607 (NINDS Approved Drug Screening Program, 2009).
# Records with an inconclusive call do not appear.
# Test system: cells expressing AR112-GFP, GFP fluorescence
# Test: AR112GFP polyglutamine androgen receptor turnover promoters – cell-based, GFP fluorescence (AID 1607)
row,Structure (SMILES),EC50
1,CN(C)C(=O)C(CCN1CCC(O)(c2ccc(Cl)cc2)CC1)(c1ccccc1)c1ccccc1,3.75 µM
2,CN1CCN(CCC=C2c3ccccc3Sc3ccc(S(=O)(=O)N(C)C)cc32)CC1,3.12 µM
3,CN(C)CCC=C1c2ccccc2C=Cc2ccccc21,3.12 µM
4,NCCc1cc(O)c(O)cc1O,3.12 µM
5,CC(CN(C)C)CN1c2ccccc2Sc2ccccc21 (stereo not given),3.75 µM
6,CC(CN(C)C)CN1c2ccccc2CCc2ccccc21 (stereo not given),3.75 µM
7,CN1CCC[C@@H]1CCO[C@](C)(c1ccccc1)c1ccc(Cl)cc1,3.12 µM
8,CCc1nc(N)nc(N)c1-c1ccc(Cl)cc1,3.75 µM
9,CCC(C)[C@H]1O[C@]2(C=C[C@@H]1C)C[C@@H]1C[C@@H](C/C=C(\C)[C@@H](OC3C[C@H](OC)C(O[C@H]4C[C@H](OC)[C@@H](O)[C@H](C)O4)[C@H](C)O3)[C@@H](C)/C=C/C=C3\CO[C@@H]4[C@H](O)C(C)=C[C@@H](C(=O)O1)[C@]34O)O2 (stereo not given in full),3.75 µM
10,CNCCCN1c2ccccc2CCc2ccccc21,3.12 µM
11,COc1ccc2cc3[n+](cc2c1OC)CCc1cc2c(cc1-3)OCO2,3.12 µM
12,Clc1ccc(C(OCCN2CCCCC2)c2ccccc2)cc1 (stereo not given),3.75 µM
13,COC(=O)[C@H]1[C@H]2C[C@@H]3c4[nH]c5cc(OC)ccc5c4CCN3C[C@H]2C[C@@H](OC(=O)c2cc(OC)c(OC)c(OC)c2)[C@@H]1OC,3.75 µM
14,O=c1cc(-c2ccccc2)oc2c(O)c(O)ccc12,2.5 µM
15,Fc1ccc(C(c2ccc(F)cc2)N2CCN(C/C=C/c3ccccc3)CC2)cc1,3.75 µM
